Measured values taken from patent US4647552A, “Process for obtaining ready for fertilization sexual products from sexually mature fish” (Kozponti Valto-es Hitelbank Rt. Innovacios Alap, priority 1983, dated 1987).
Where a SMILES comes first, the peptide text is derived from it. [ ]: non-standard residue; d: D form. pGlu = O=C1CC[C@@H](C(=O)O)N1

Key:
Assay type in all cases: in vivo
[1] = system: horse mackerel (Trachurus trachurus L.); test: Induced artificial propagation of horse mackerel; conditions: single dose of 10 μg injected, water temperature 18°-24° C.
Description: From among horse mackerels caught alive from the Adriatic in November specimens having a length of at least 240 mm are transported to the place of propagation. (Fish of this size are already mature sexually.) The compound of formula (II) is injected into each fish in a single dose of 10 μg. Ovulation takes place in 24 hours at the water temperature of 18°-24° C. Sexual products are obtained in 2 hours. In case of horse mackerel the determination of stage of ripening and sex is unnecessary as ripe fish are at disposal in a practically unlimited quantity.

[2] = system: sterlet (Acipenser ruthenus L.); test: Induced artificial propagation of sterlet; conditions: single dose of 70 μg if ripe for ovulation, or last of the 10 μg doses, injected
Description: From the population of a given habitat mature fish are selected and then transported to the place of propagation. Sexes are segregated and the stage of ripening of eggs from females is determined. Fish are considered to be ripe for ovulation if the nucleus is situated on the periphery of the egg cell. Sperms of males are not examined as in the population of a given habitat the sexual products of males and females are practically in the same stage of ripening. If fish are ripe for ovulation, decapeptide of formula (II) in a single dose of 70 μg each is injected into each fish, including males. If fish are not ripe for ovulation, they should be kept at the temperature of natural spawning and the above compound should be administered in doses of 10 μg each, at least 2 but at most 12 times as long as the nucleus moves from the centre to the periphery. The number of treatments depends on the actual stage of maturity of sexual products in comparison to the stage "ripe for ovulation". This process of ripening lasts at least 100 but at most 630 day-grades in the temperature interval of 12°-18° C. (Day-grade means number of days multiplied by the mean temperature of water used in the ripening period.) Ovulation takes place 24-32 hours after the administration of the last dose. Thereafter sexual products are obtained in 40-60 minutes.

[3] = system: perch [Perca fluviatilis L.]; test: Induced artificial propagation of perch; conditions: single dose of 20 μg if ripe for ovulation, or last of the 2 μg doses
Description: Mature fish are selected from a population and transported to the place of propagation. Maturity of sexual products is determined according to Example 1 but sexes are not segregated. Fish ripe for ovulation--includingmales--are treated with a single dose of 20 μg of decapeptide of formula (II). Fish not yet ripe for ovulation should be kept at the temperature of natural spawning and the above-mentioned compound should be administered in doses of 2 μg each at least 2 but at most 10 times as long as the nucleus of egg cell moves from the centre to the periphery. The number of treatments depends on the actual stage of maturity of sexual products in comparison to the stage "ripe for ovulation". The process of ripening lasts at least 100 day-grades, in extreme cases to 400 day-grades, in the water temperature-interval of 12°-16° C. Spawning takes place 24-36 hours after the administration of the last dose. Perch can be spawned easily in tanks; in such a case stripping of sexual products is not necessary.

[4] = system: silver carp (Hypophthalmichthys molitrix Val.); test: Induced artificial propagation of silver carp; conditions: single dose of 100 μg if ripe for ovulation, or last of the 10 μg doses
Description: Sexually mature fish are selected from the stock and transported to the place of propagation. Sexes are segregated. Stage of ripening of sexual products is determined according to Example 1 and fish ripe for ovulation--including males--are treated with a single dose of 100 μg of decapeptide of formula (III). Fish not yet ripe for ovulation should be kept at the temperature of natural spawning and the above-mentioned compound should be administered in doses of 10 μg each, at least 2 but at most 10 times as long as the nucleus of egg cell moves from the centre to the periphery. The number of treatments depends on the actual stage of maturity of sexual products in comparison to the stage "ripe for ovulation". This process of ripening lasts at least 150, in extreme cases to 850, day-grades in the water temperature interval of 20°-26° C. Ovulation takes place 240-260 hour-grades after the administration of the last dose. Thereafter sexual products are stripped.

[5] = system: common carp (Cyprinus carpio L.); test: Induced artificial propagation of common carp; conditions: single dose of 70 μg if ripe for ovulation, or last of the 5 μg doses
Description: In any season of the year and at any temperature mature breeders are selected from the stock and transported to the place of propagation. Sexes are segregated and the stage of ripening of sexual products is determined according to Example 1. If fish are ripe for ovulation, a single dose of 70 μg of decapeptide of formula (III) is administered, including males. Fish not yet ripe for making ovulate should be kept at the temperature of natural spawning and the above-mentioned compound should be administered in doses of 5 μg each, at least 2 but at most 15 times as long as the nucleus of the egg cell moves from the centre to the periphery. The number of treatments depends on the actual stage of maturity of sexual products in comparison to the stage "ripe for ovulation". The process of ripening lasts at least 100 but most 750 day-grades in the temperature interval of 20°-24° C. Ovulation takes place 240-260 hour-grades after the administration of the last dose. Then sexual products are stripped in 40-60 minutes. cl EXAMPLE 3

Compound | Ovulation takes place in [1] [h] | Ovulation takes place after the administration of the last dose [2] [h] | Spawning takes place after the administration of the last dose [3] [h] | Ovulation takes place after the administration of the last dose [4] | Ovulation takes place after the administration of the last dose [5]
CC(C)C[C@H](NC(=O)[C@@H](Cc1ccccc1)NC(=O)[C@H](Cc1ccc(O)cc1)NC(=O)[C@H](CO)NC(=O)[C@H](Cc1c[nH]c2ccccc12)NC(=O)[C@H](Cc1c[nH]cn1)NC(=O)[C@@H]1CCC(=O)N1)C(=O)N[C@@H](CCC(N)=O)C(=O)N1CCC[C@H]1C(=O)NCC(N)=O [formula (II), Glp-His-Trp-Ser-Tyr-D-Phe-Leu-Gln-Pro-Gly-NH2] ([pGlu]HWSY[dF]LQPG-NH2) | 24 | 24 to 32 | 24 to 36 |  | 
CC(C)C[C@H](NC(=O)[C@H](Cc1c[nH]c2ccccc12)NC(=O)[C@@H](Cc1ccccc1)NC(=O)[C@H](Cc1ccc(O)cc1)NC(=O)[C@H](CO)NC(=O)[C@H](Cc1c[nH]c2ccccc12)NC(=O)[C@H](Cc1c[nH]cn1)NC(=O)[C@@H]1CCC(=O)N1)C(=O)N1CCC[C@H]1C(=O)NCC(N)=O [formula (III), Glp-His-Trp-Ser-Tyr-D-Phe-Trp-Leu-Pro-Gly-NH2] ([pGlu]HWSY[dF]WLPG-NH2) |  |  |  | 240-260 hour-grades | 240-260 hour-grades
